Experimental findings from US12570639B2, “Tetrahydroquinoline derivative and medicinal use thereof” (Toray Industries, Inc., priority 2020, dated 2026) are described below.

The subject of experiment [1] is Human fibrosarcoma cells (HT-1080 cells). The experiment can be described thus: In vitro inhibitory action against ferroptosis (Erastin-induced cell death, Cell Counting Kit-8). It counts as cell-based. The note with it: Erastin 3 μmol/L, 24 hours.
A short description of experiment [2]: In vitro radical scavenging action (DPPH method). The note with it: 30 minutes at room temperature, maximum concentration 100 μmol/L. How it is done:
Radical scavenging action was evaluated using the DPPH method in the compound of Comparative Example 1, which is a tetrahydroquinoxaline derivative, and in the tetrahydroquinoline derivative (I) or a pharmaceutically acceptable salt thereof. The DPPH method was performed using an antioxidant capacity measurement kit (Dojindo Laboratories).
A test compound was dissolved in DMSO, and the resulting solution was then mixed with an assay buffer and a DPPH solution, which are included in the kit, to a total volume of 200 μL to obtain a final concentration of 10% DMSO, and the reaction was allowed to proceed. Wells added with 100 μmol/L ferrostatin-1, a radical scavenger, were grouped as “control,” and wells added with not test compound were grouped as “background.” The test compound was serially diluted 3-fold starting from a maximum concentration of 100 μmol/L, and the diluted test compound (1.2, 3.7, 11.1, 33.3, or 100 μmol/L) was added and allowed to react at room temperature. Thirty minutes after the reaction, the absorbance at 517 nm was measured, and the average absorbance value was calculated (N=2). The radical scavenging action of the test compound (hereinafter referred to as radical scavenging rate, %) was calculated based on the equation 2 below. The EC50 value of the test compound was calculated from the radical scavenging rate. Radical scavenging rate (%)=[1−{(Average absorbance value at 517 nm measured when a test compound is added)−(Average absorbance value at 517 nm measured in the background)}/{(Average absorbance value at 517 nm measured in the control)−(Average absorbance value at 517 nm measured in the background)}]×100 Equation 2
A note “no detection of radical scavenging action (N.D.),” is given to compounds with a EC50 of >100 μmol/L.
A general note: Loss of DPPH colour is used to gauge radical scavenging.

Where [3] appears, read: evaluation concentration 30 μmol/L.
Setting [4] is: evaluation concentration 50 μmol/L.
The mark [5] stands for this setting: evaluation concentration 10 μmol/L.

Where a name gives a salt, the structure may show the parent alone.

Turning to `Fc1cccc2c1CCC(c1ccccc1)N2` (stereo not shown) [Example 66, 5-fluoro-2-phenyl-1,2,3,4-tetrahydroquinoline], the “Ferroptosis inhibition rate (%)” value in experiment [1] (setting [3]) worked out at 101.5%. For the same compound, the 50% effective concentration (EC50) in experiment [2] was greater than 100 µM.
The corresponding values for `Clc1cccc2c1CCC(c1ccccc1)N2` (stereo not shown) [Example 67, 5-chloro-2-phenyl-1,2,3,4-tetrahydroquinoline] are 102.4% and greater than 100 µM.
Taken in the same sequence, the figures for `Fc1ccc2c(c1)NC(c1ccccc1)CC2` (stereo not shown) [Example 68, 7-fluoro-2-phenyl-1,2,3,4-tetrahydroquinoline] were 101.9% and greater than 100 µM.
The corresponding values for `Clc1ccc2c(c1)NC(c1ccccc1)CC2` (stereo not shown) [Example 69, 7-chloro-2-phenyl-1,2,3,4-tetrahydroquinoline] are 106.4% and greater than 100 µM.
Turning to `FC(F)(F)Oc1ccc2c(c1)CCC(c1ccccc1)N2` (stereo not shown) [Example 81, 2-phenyl-6-(trifluoromethoxy)-1,2,3,4-tetrahydroquinoline], in experiment [1] (setting [4]), the “Ferroptosis inhibition rate (%)” value was determined as 103.9%. In addition, in experiment [2], the EC50 is greater than 100 µM.
On to `Fc1ccc2c(c1)CCC(c1ccccc1)N2` (stereo not shown) [Example 82, 6-fluoro-2-phenyl-1,2,3,4-tetrahydroquinoline], for which the “Ferroptosis inhibition rate (%)” value in experiment [1] (setting [3]) is listed as 112.6%. Moreover, the EC50 in experiment [2] is greater than 100 µM.
As to `Clc1ccc2c(c1)CCC(c1ccccc1)N2` (stereo not shown) [Example 83, 6-chloro-2-phenyl-1,2,3,4-tetrahydroquinoline], in experiment [1] (setting [4]), the “Ferroptosis inhibition rate (%)” value was 103.8%. This compound yielded an EC50 in experiment [2] greater than 100 µM.
The corresponding values for `Fc1cc2c(cc1F)NC(c1ccccc1)CC2` (stereo not shown) [Example 85, 6,7-difluoro-2-phenyl-1,2,3,4-tetrahydroquinoline] are 94.94% and greater than 100 µM.
In the case of `Cc1ccc2c(c1)CCC(c1ccc(C(N)=O)cc1)N2` (stereo not shown) [Example 99, 4-(6-methyl-1,2,3,4-tetrahydroquinolin-2-yl)benzamide], the “Ferroptosis inhibition rate (%)” value in experiment [1] (setting [3]) amounted to 98.85%. This compound also returned a 50% effective concentration (EC50) in experiment [2] greater than 100 µM.
The corresponding values for `Cc1ccc2c(c1)NC(c1ccc(S(N)(=O)=O)cc1)CC2` (stereo not shown) [Example 105, 4-(7-methyl-1,2,3,4-tetrahydroquinolin-2-yl)benzenesulfonamide] are 99.03% and greater than 100 µM.
Taken in the same sequence, the figures for `Cc1ccc2c(c1)NC(c1ccc(C(N)=O)cc1)CC2` (stereo not shown) [Example 106, 4-(7-methyl-1,2,3,4-tetrahydroquinolin-2-yl)benzamide] were 111.7% and greater than 100 µM.
The corresponding values for `NS(=O)(=O)c1ccc(C2CCc3cc(F)ccc3N2)cc1` (stereo not shown) [Example 107, 4-(6-fluoro-1,2,3,4-tetrahydroquinolin-2-yl)benzenesulfonamide] are 100.8% and greater than 100 µM.
Consider `NS(=O)(=O)c1ccc(C2CCc3cc(F)ccc3N2)cc1` (stereo not shown) [Example 109, 4-(6-fluoro-1,2,3,4-tetrahydro-quinolin-2-yl)benzenesulfonamide], for which the “Ferroptosis inhibition rate (%)” value in experiment [1] (setting [5]) amounted to 83.63%. This compound also gave a 50% effective concentration (EC50) in experiment [2] greater than 100 µM.
For the compound `Cc1cccc2c1CCC(c1ccc(S(N)(=O)=O)cc1)N2` (stereo not shown) [Example 112, 4-(5-methyl-1,2,3,4-tetrahydroquinolin-2-yl)benzenesulfonamide], the “Ferroptosis inhibition rate (%)” value in experiment [1] (setting [3]) amounted to 105.5%. The compound further showed a concentration for a half-maximal effect (EC50) in experiment [2] greater than 100 µM.
Turning to `NS(=O)(=O)c1ccc(C2CCc3cc(Cl)ccc3N2)cc1` (stereo not shown) [Example 115, 4-(6-chloro-1,2,3,4-tetrahydroquinolin-2-yl)benzenesulfonamide], the “Ferroptosis inhibition rate (%)” value in experiment [1] (setting [3]) is recorded as 105.8%. The compound also returned a half-maximal effective concentration (EC50) in experiment [2] greater than 100 µM.
As to `NS(=O)(=O)c1ccc(C2CCc3cc(Cl)ccc3N2)cc1` (stereo not shown) [Example 116, 4-(6-chloro-1,2,3,4-tetrahydro-quinolin-2-yl)benzenesulfonamide], the “Ferroptosis inhibition rate (%)” value in experiment [1] (setting [5]) came to 80.69%. This compound gave an EC50 in experiment [2] greater than 100 µM.
With `NS(=O)(=O)c1ccc(C2CCc3ccc(F)cc3N2)cc1` (stereo not shown) [Example 118, 4-(7-fluoro-1,2,3,4-tetrahydroquinolin-2-yl)benzenesulfonamide], the “Ferroptosis inhibition rate (%)” value in experiment [1] (setting [3]) was 95.28%. In experiment [2], this compound came in with an EC50 greater than 100 µM.
Consider `Cc1ccc2c(c1)CCC(c1ccc(S(N)(=O)=O)cc1)N2` (stereo not shown) [Example 120, 4-(6-methyl-1,2,3,4-tetrahydroquinolin-2-yl)benzenesulfonamide], for which the “Ferroptosis inhibition rate (%)” value in experiment [1] (setting [5]) is listed as 87.34%. Moreover, the EC50 in experiment [2] is greater than 100 µM.
For the compound `NC(=O)c1ccc(C2CCc3cc(Cl)ccc3N2)cc1` (stereo not shown) [Example 121, 4-(6-chloro-1,2,3,4-tetrahydroquinolin-2-yl)benzamide], in experiment [1] (setting [5]), the “Ferroptosis inhibition rate (%)” value is 92.10%. The compound further registered a concentration for a half-maximal effect (EC50) in experiment [2] greater than 100 µM.
The corresponding values for `NC(=O)c1ccc(C2CCc3cc(Cl)ccc3N2)cc1` (stereo not shown) [Example 122, 4-(6-chloro-1,2,3,4-tetrahydroquinolin-2-yl)benzamide] are 97.59% and greater than 100 µM.
As to `NC(=O)c1ccc(C2CCc3cc(Cl)ccc3N2)cc1` (stereo not shown) [Example 131, 4-(6-chloro-1,2,3,4-tetrahydroquinolin-2-yl)benzamide], the “Ferroptosis inhibition rate (%)” value in experiment [1] (setting [3]) stood at 102.5%. In experiment [2], this compound came in with a 50% effective concentration (EC50) greater than 100 µM.
Consider `NC(=O)c1ccc(C2CCc3cc(F)ccc3N2)cc1` (stereo not shown) [Example 132, 4-(6-fluoro-1,2,3,4-tetrahydroquinolin-2-yl)benzamide], for which, in experiment [1] (setting [3]), the “Ferroptosis inhibition rate (%)” value stood at 105.6%. This compound also showed an EC50 in experiment [2] greater than 100 µM.
The corresponding values for `NS(=O)(=O)c1ccc(C2CCc3c(Cl)cccc3N2)cc1` (stereo not shown) [Example 134, 4-(5-chloro-1,2,3,4-tetrahydroquinolin-2-yl)benzenesulfonamide] are 77.77% and greater than 100 µM.
The corresponding values for `NS(=O)(=O)c1ccc(C2CCc3c(F)cccc3N2)cc1` (stereo not shown) [Example 135, 4-(5-fluoro-1,2,3,4-tetrahydroquinolin-2-yl)benzenesulfonamide] are 62.32% and greater than 100 µM.
Take `CS(=O)(=O)Nc1ccc(C2CCc3ccccc3N2)cc1` (stereo not shown) [Example 136, N-(4-(1,2,3,4-tetrahydroquinolin-2-yl)phenyl)methanesulfonamide]: the “Ferroptosis inhibition rate (%)” value in experiment [1] (setting [3]) is given as 75.50%. This compound registered a half-maximal effective concentration (EC50) in experiment [2] greater than 100 µM.
Taken in the same sequence, the figures for `NC(=O)c1ccc(C2CCc3c(F)cccc3N2)cc1` (stereo not shown) [Example 137, 4-(5-fluoro-1,2,3,4-tetrahydroquinolin-2-yl)benzamide] were 93.06% and greater than 100 µM.
Taken in the same sequence, the figures for `NC(=O)c1ccc(C2CCc3c(Cl)cccc3N2)cc1` (stereo not shown) [Example 138, 4-(5-chloro-1,2,3,4-tetrahydroquinolin-2-yl)benzamide] were 65.15% and greater than 100 µM.
Turning to `O=C(Cc1ccc2c(c1)CCC(c1ccccc1)N2)N1CC(O)C1` (stereo not shown) [Example 143, 1-(3-hydroxyazetidin-1-yl)-2-(2-phenyl-1,2,3,4-tetrahydroquinolin-6-yl)ethan-1-one hydrochloride], in experiment [1] (evaluation concentration 30 μmol/L, hydrochloride), the “Ferroptosis inhibition rate (%)” value is recorded as 93.97%. In experiment [2], this compound yielded an EC50 greater than 100 µM.
On to `O=C(Cc1ccc2c(c1)CCC(c1ccccc1)N2)N1CCOCC1` (stereo not shown) [Example 145, 1-morpholino-2-(2-phenyl-1,2,3,4-tetrahydroquinolin-6-yl)ethan-1-one], for which the “Ferroptosis inhibition rate (%)” value in experiment [1] (setting [3]) is on record as 102.0%. Moreover, the EC50 in experiment [2] is greater than 100 µM.

A word on the EC50: it is the concentration needed to bring the measured effect to its halfway point. Read a high EC50 as weaker potency.
